Like-named read-outs stand apart in the source and are kept apart here.
Key:
cells = details: 50 µM fisetin/luteolin; ref Hytti et al., 2015; cited from earlier work
OXA-48 [1] = molecular target: T1, OXA-48 (Klebsiella pneumoniae, UniProt Q6XEC0); experiment: Inhibition kinetics (Lineweaver-Burk plots) of OXA-48-catalyzed nitrocefin hydrolysis; format: biochemical; details: for inhibition mode: Lineweaver-Burk plots, Km unchanged, Vmax decreased; for Ki: nitrocefin 25, 50, 75, 100 μM, Lineweaver-Burk
T1 construct: made in house; host or cells: E. coli BL21(DE3)
Experimental: The inhibition mode of quercetin and the inhibition constant (K i) were determined using a Lineweaver–Burk plot by fitting the initial rate versus the substrate concentration at each inhibitor concentration using SigmaPlot 12.0. The nitrocefin concentrations were 25, 50, 75, and 100 μM, respectively. The initial velocity was determined by measuring the […] as described above. All reaction rates were determined in triplicate.
To determine the inhibition mode of the flavonoids, the inhibition kinetics of quercetin, fisetin and luteolin against OXA-48 in the presence of different concentrations of substrate were determined, and the inhibition modes were determined by generating Lineweaver-Burk plots.

[2] = system: E.coli BW25113 ∆acrA∆bamB (OXA-48); format: cell-based; details: for reduction in the piperacillin MIC: compound at 64 μg/mL; for MIC decrease for imipenem: compound at a dose of 64 μg/mL
Experimental: The recombinant plasmid containing the Pbla promoter and OXA-48 constructed above was then transformed into BW25113, BW25113 ∆acrA, BW25113 ∆bamB, and BW25113 ∆acrA∆bamB. The above strains were used to study the minimum inhibitory concentration (MIC). Antibiotic susceptibility tests were performed by the microdilution method following Clinical and Laboratory Standards Institute (CLSI) criteria ([CLSI, 2015]). Four E. coli strains expressing OXA-48 were used to assess the inhibitors. The susceptibility to piperacillin/imipenem combined with the compound at a concentration of 16 or 64 μg/mL was determined. […] Each measurement was conducted in triplicate. The fractional inhibitory concentration index (FICI) was determined according to the following formula: FICI = MIC (QT) in combination/MIC (QT) alone + MIC (PIP) in combination/MIC (PIP) alone. The drug interactions are defined as synergistic if the FICI is ≤0.5, indifferent if the FICI is >0.5 and ≤4.0, and antagonistic if the FICI is >4.0.
To investigate whether the compounds could restore the antimicrobial activity of β-lactam, the MICs of β-lactam antibiotics against resistant Gram-negative bacteria in the absence and presence of compounds (fisetin, 3′,4′,7-trihydroxyflavone, luteolin or quercetin) were determined by using published guidelines described by CLSI ([CLSI, 2015]). Specifically, we used OXA-48 producing strains E. coli BW25113, BW25113 ∆acrA, BW25113 ∆bamB, and BW25113 ∆acrA∆bamB as resistant Gram-negative bacteria. […] Imipenem, a carbapenem antibiotic, was applied at increasing concentrations ranging from 0.03 μg/mL to 4 μg/mL. The compounds were tested at 64 and 16 μg/mL.

OXA-48 [3] = molecular target: T1, OXA-48; experiment: Enzyme inhibition assay against purified OXA-48 with nitrocefin as substrate; format: biochemical; details: for percent inhibition against OXA-48: at 50 μM compound, nitrocefin substrate, 50 µM; for IC50: purified OXA-48 12 nM, nitrocefin 200 μM, 0.1 M phosphate buffer pH 7.0, 50 mM NaHCO3, 25°C, read-out: IC50 against OXA-48
Experimental: The inhibitory activity of compounds against the purified OXA-48 was tested on a BioTek HTS reader. The reactions were conducted in 0.1 M phosphate buffer (pH 7.0) supplemented with 50 mM NaHCO3 at 25°C with a final assay volume of 100 μL. The concentrations of enzyme and substrate were 12 nM and 200 μM, respectively. The initial reaction rates in the absence and presence of the compound were monitored at 495 nm in triplicate. The inhibitor concentration causing a 50% decrease in enzyme activity (IC50) was determined by plotting the percent inhibition against the log10 of the inhibitor concentration and fitting the data in a dose–response-inhibition model using GraphPad Prism 7.0.
Quercetin is a member of the flavonoid class with diverse structures obtained from nature, some of which have been used for the treatment of infectious diseases in traditional medical systems ([Farhadi et al., 2019]). To investigate whether quercetin and other flavonoids are OXA-48 inhibitors, the enzyme inhibition assays were conducted on a BioTek HTS reader using nitrocefin as a substrate. The concentrations of enzyme and substrate were 12 nM and 200 μM, respectively. The initial hydrolysis rate of nitrocefin was monitored at 495 nm. The percentage inhibition is defined as the enzyme activity in the absence of inhibitor (100%) minus the remaining activity in the presence of inhibitor.

mice = details: cited from earlier work
OXA-48 [4] = molecular target: T1, OXA-48; experiment: Isothermal titration calorimetry of imipenem hydrolysis by OXA-48; format: biochemical; details: quercetin 0 to 40 µM, imipenem 1 mM, OXA-48 10 nM, 25°C
Experimental: OXA-48, imipenem, and quercetin were prepared in 30 mM Tris, 5 mM NaHCO3 (pH 7.5) supplemented with 5% DMSO. […] The solutions were degassed by centrifugation at a speed of 14,000 × g for 5 min before injection. The enzyme and inhibitor samples were preincubated for 1 h and then loaded into the sample cell. Imipenem (38 µL) in the syringe was titrated into the sample cell (210 µL) in a single injection mode. Heat flow (μcal/s) was recorded as a function of time. As a negative control, the reaction in the absence of quercetin was measured. The data were collected and analyzed with MicroCal Analysis Launcher Origin 7.0 software.
Isothermal titration calorimetry (ITC) was performed to assess the thermodynamic inhibitory effect of quercetin against OXA-48 ([Zhang et al., 2018]). […] Different concentrations of quercetin were incubated with purified OXA-48 for 1 h in 30 mM Tris, 5 mM NaHCO3 (pH 7.5). The mixtures were loaded into the sample cell (210 µL). A 38 µL of the substrate (imipenem) in the syringe was titrated into the sample cell in a single injection mode.

OXA-48 [5] = molecular target: T1, OXA-48; experiment: Surface plasmon resonance interaction analysis; format: binding; details: 12.5-200 µM quercetin over immobilized OXA-48
Experimental: Surface plasmon resonance (SPR) experiments were performed on a Biacore T100 at 25°C. The running buffer consisted of 10 mM PBS (pH 7.3), 0.5% Tween-20, and 2.5% DMSO. OXA-48 solution was prepared in a concentration of […] in 10 mM PBS (pH 7.3) and immobilized on a CM5 chip using standard amine coupling to a level of approximately 5000 RU. Quercetin was dissolved in the running buffer and tested in 2-fold dilutions ranging from 12.5 to 200 µM with an injection time of 30 s and a dissociation time of 60 s. The data were analyzed using Biacore T100 Evaluation Software 2.0.
A surface plasmon resonance (SPR) assay was then performed to investigate whether quercetin inhibited the activity of OXA-48 by directly binding to OXA-48. OXA-48 enzyme was immobilized on a CM5 sensor chip with an immobilization level of approximately 5000 RU. Quercetin was injected at different concentrations (12.5, 25, 50, 100 and 200 µM) over the protein surface.

[6] = system: E. coli BW25113 ∆acrA∆bamB (OXA-48); experiment: Growth curve with quercetin alone; format: cell-based; details: quercetin at 16 or 64 μg/mL
From the text: We next performed checkerboard microdilution assays against OXA-48-positive strain BW25113 ∆acrA∆bamB (OXA-48) and OXA-48-negative strain ∆acrA∆bamB to assess the synergistic antimicrobial effect. […] The synergy effect was further verified by time-kill curves.
FIGURE 6 (A,B) Heatmap showing the growth inhibition of OXA-48-positive strain E. coli BW25113 ∆acrA∆bamB (OXA-48) (A) and OXA-48-negative strain ∆acrA∆bamB (B) in the presence of quercetin and piperacillin. (C) Time-kill curves for combination therapy of piperacillin and quercetin against E. coli BW25113 ∆acrA∆bamB (OXA-48). The concentrations of piperacillin and quercetin used in the assay were 64 and 64 μg/mL , respectively. (D) The growth curve of E. coli BW25113 ∆acrA∆bamB (OXA-48) in the absence and presence of quercetin.

[7] = system: ∆acrA∆bamB (OXA-48) mutant strain; experiment: Cell-based screen of natural products in the presence of piperacillin; set-up: species or system E. coli
Experimental: The ∆acrA∆bamB (OXA-48) mutant strain was then used to screen for inhibitors of OXA-48. […] Approximately 150 plant natural products with a concentration of 40 μg/mL were screened in the presence of 128 μg/mL piperacillin.

[8] = system: E. coli BW25113 ∆acrA∆bamB (OXA-48); experiment: Mouse systemic infection model; format: in vivo, Kunming mice; details: 10 mg/kg each, intravenous, 1 h post infection; organs 24 h post-infection; vs untreated group
OXA-48 β-Lactamase = molecular target: T2, OXA-48 β-Lactamase (Klebsiella pneumoniae, UniProt Q6XEC0); experiment: Partition ratio measurement; format: biochemical; details: OXA-48 12 nM, 1 h incubation; at a 5 μM concentration of quercetin
T2 construct: made in house; host or cells: E. coli BL21(DE3)

KPC-2 = system: KPC-2; set-up: method as in Papp-Wallace et al., 2010; details: for KPC-2; ref Papp-Wallace et al., 2010; cited from earlier work

T1 sequence (Q6XEC0 23-265 limits assumed): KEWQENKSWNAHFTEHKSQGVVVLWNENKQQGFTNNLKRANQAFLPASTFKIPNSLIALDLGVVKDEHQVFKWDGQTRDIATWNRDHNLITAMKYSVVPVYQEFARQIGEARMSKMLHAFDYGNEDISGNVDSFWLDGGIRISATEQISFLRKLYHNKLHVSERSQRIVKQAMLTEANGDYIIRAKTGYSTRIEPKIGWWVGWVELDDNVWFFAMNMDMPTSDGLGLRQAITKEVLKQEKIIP
T2 sequence (Q6XEC0 23-265 limits assumed): as above

Row | Compound | toxicity to the cells (cells) | inhibition mode (OXA-48 [1]) | Ki (OXA-48 [1]) [nM] | reduction in the piperacillin MIC [2] [fold] | MIC decrease for imipenem [2] [fold] | percent inhibition against OXA-48 (OXA-48 [3]) [%] | percent inhibition against OXA-48 (OXA-48 [3]; listed as fisetin) | IC50 (OXA-48 [3]) [nM] | percent inhibition against OXA-48 (OXA-48 [3]; listed as luteolin) | LD50 (mice; ref Ardeshir et al., 2018) [mg/kg] | reversibility of inhibition (total heat of imipenem hydrolysis) (OXA-48 [4]) | SPR interaction with OXA-48 (OXA-48 [5]) | growth of the cells [6] | percent inhibition against OXA-48 (OXA-48 [3]; listed as quercetin) | LD50 (mice; ref Sullivan et al., 1951, Taepongsorat et al., 2008) [mg/kg] | restoration of antibiotic activity in screen ([7]; 40 μg/mL compound with 128 μg/mL piperacillin) | bactericidal effect of the compound itself ([7]; in the absence of piperacillin) | bacterial load in spleen and liver [8] | partition ratio (I:E for greater than 90% inhibition) (OXA-48 β-Lactamase) | partition ratio (KPC-2)
1 | O=c1c(O)c(-c2ccc(O)c(O)c2)oc2cc(O)ccc12 [Fisetin] | no toxicity | noncompetitively inhibited | 620 ± 60 | 2 | 2 | 90 | more than 50% | 470 ± 30 |  |  |  |  |  |  |  |  |  |  |  | 
2 | O=c1cc(-c2ccc(O)c(O)c2)oc2cc(O)cc(O)c12 [Luteolin] |  | noncompetitively inhibited | 820 ± 50 | 4 | 2 | 81 |  | 550 ± 20 | more than 50% | 150 |  |  |  |  |  |  |  |  |  | 
3 | O=c1c(O)c(-c2ccc(O)c(O)c2)oc2cc(O)cc(O)c12 [Quercetin] |  | noncompetitively inhibited | 1310 ± 210 | 8 | 2 | 87 |  | 1470 ± 140 |  |  | reversibly inhibited OXA-48 | dose-dependent interaction | did not inhibit the growth of the cells | more than 50% | 160 | restored antibiotic activity | without bactericidal effect | did not show a significant reduction of bacterial load | approximately 420 | 
4 | O=C(O)[C@H]1/C(=C/CO)O[C@@H]2CC(=O)N21 [clavulanic acid] |  |  |  |  |  |  |  |  |  |  |  |  |  |  |  |  |  |  |  | 2,500

— article PMC9258905, “Discovery of Quercetin and Its Analogs as Potent OXA-48 Beta-Lactamase Inhibitors” (Frontiers in Pharmacology, 2022)
